Assay results as given in US12377104B1, “Methods for treating a fatty liver disease” (Madrigal Pharmaceuticals, Inc., priority 2024, dated 2025).

Experiments:
NASH patients = experiment: MAESTRO-NAFLD-1 100 mg open label non-cirrhotic NASH arm, 52 weeks; type: in vivo, human
Method: The 169 patient, 100 mg open label (OL) arm completed the 52 week study in July 2021.
Eligibility required at least 3 metabolic risk factors (Metabolic syndrome), fibroscan kilopascals (kPa) consistent with ≥F1 fibrosis stage, and MRI-PDFF≥8%. The primary and key secondary endpoints of MAESTRO-NAFLD-1 including safety, relative percent reduction of MRI-PDFF (week 16), LDL cholesterol (LDL-C) (week 24), apolipoprotein B and triglycerides, fibroscan and 52 week endpoints were analyzed in the OL arm.
Mean age was 55.7 (11.5 Standard Deviation (SD)), female 69%, BMI 35.8 (6.0), diabetes 43%, hypertension 62%, dyslipidemia >70%, atherosclerotic cardiovascular disease (ASCVD) score 11.5%; fibroscan (kPa 7.7 (3.6)), and MRI-PDFF 17% (7%). […] Liver volume (LV) was elevated at baseline (2202 cm3 (535)) by […] relative to normal controls and −15% after correction for BMI (Euro J of Radiol 106, 2018, 32-37). […] LV reduction was 2-3 fold greater than predicted by % reduction in MRI-PDFF, a measure of liver fat content (Clin Gastroenterol Hepatol. 2015 13: 561-568); LY-corrected mean MRI-PDFF reduction was −63% (2.4%). […] At week 52, magnetic resonance elastography (MRE) (−0.34, p=0.03); fibroscan controlled attenuation parameter (CAP) (−39 (4.6)) and vibration-controlled transient elastography (VCTE) (−1.87; −20%) (p<0.0001) were reduced relative to baseline.

CYP2C8 = target: T1, CYP2C8 (Homo sapiens, UniProt P10632); experiment: In vitro metabolism by CYP enzymes; type: in vitro ADME
T1 sequence (P10632 1-490): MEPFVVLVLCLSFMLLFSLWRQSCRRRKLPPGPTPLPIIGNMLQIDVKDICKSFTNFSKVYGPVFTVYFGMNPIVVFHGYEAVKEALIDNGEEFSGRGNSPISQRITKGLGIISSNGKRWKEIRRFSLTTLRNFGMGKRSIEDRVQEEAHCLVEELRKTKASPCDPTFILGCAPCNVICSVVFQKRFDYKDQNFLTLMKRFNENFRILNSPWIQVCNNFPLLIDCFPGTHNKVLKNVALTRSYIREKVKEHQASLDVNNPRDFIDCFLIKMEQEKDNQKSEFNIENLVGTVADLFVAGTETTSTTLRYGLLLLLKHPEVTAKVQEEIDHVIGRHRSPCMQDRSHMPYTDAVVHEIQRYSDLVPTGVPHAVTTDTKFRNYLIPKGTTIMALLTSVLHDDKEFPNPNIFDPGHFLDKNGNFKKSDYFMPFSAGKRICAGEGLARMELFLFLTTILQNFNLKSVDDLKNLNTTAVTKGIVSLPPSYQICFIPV

[1] = tested on: adults with biopsy-confirmed NASH; experiment: MAESTRO-NASH: biomarkers PRO-C3 and P3NP/ELF; type: in vivo, human
Method: Pearson's correlation was used to examine the association between 2 PRO-C3 enzyme-linked immunosorbent assay (ELISA) assay methods (ELISA GEN1 and ELISA GEN2, NORDIC BIOSCIENCE) using PRO-C3 baseline data (N=919). The remainder of the analyses used the ELISA GEN2 assay. Mean SD or SE and median [Q1, Q3]were calculated to summarize PRO-C3 data. […] Mean difference with 95% CI and nominal P-values were obtained from the ANCOVA. Scatterplots and Spearman's correlations with 95% CIs were used to assess the associations between P3NP/ELF and PRO-C3 both at baseline and change from baseline at Week 52.

[2] = F1B patients only, 80 mg, Week 52
[3] = F1B patients only, 100 mg, Week 52
[4] = F2 patients only, 80 mg, Week 52
[5] = F2 patients only, 100 mg, Week 52
[6] = F3 patients only, 80 mg, Week 52
[7] = F3 patients only, 100 mg, Week 52
[8] = Overall, 80 mg, Week 52, ELISA GEN2
[9] = Overall, 100 mg, Week 52, ELISA GEN2

## CC(C)c1cc(Oc2c(Cl)cc(-n3nc(C#N)c(=O)[nH]c3=O)cc2Cl)n[nH]c1=O [Resmetirom, 2-(3,5-dichloro-4-((5-isopropyl-6-oxo-1,6-dihydropyridazin-3-yl)oxy)phenyl)-3,5-dioxo-2,3,4,5-tetrahydro-1,2,4-triazine-6-carbonitrile]
NASH patients
  ALT decrease from baseline: −20 IU
  AST decrease from baseline: −11 IU
  Blood pressure (systolic, diastolic) change: −2 mmHg
  GGT decrease from baseline: −25 IU
  LDL-C change: −22%
  LV reduction greater than predicted by % reduction in MRI-PDFF: 2-3 fold
  LV-corrected mean MRI-PDFF reduction: −63%
  apolipoprotein-B change: −24%
  triglycerides change: −24%
NASH patients; 52 weeks
  bone mineral density (DEXA): unchanged
  safety: No safety flags
NASH patients; week 16
  LV change: −21%
NASH patients; week 52
  LV change: −23%
  reduction of MRI-PDFF: −53%
CYP2C8
  metabolizing CYP enzymes: metabolized by CYP2C8 and is not metabolized by other cytrochrome P450 (CYP) enzymes
[1]; 80 mg, Week 52
  PRO-C3 change from baseline: −17.93 (4.61)
  mean difference vs placebo in PRO-C3 change from baseline: −16.9
[1]; 100 mg, Week 52
  PRO-C3 change from baseline: −23.05 (4.76)
  mean difference vs placebo in PRO-C3 change from baseline: −22.1
[1]; [2]
  Change from Baseline in PRO-C3, Mean: -0.69 ng/mL
  Change from Baseline in PRO-C3, Median: 4.30 ng/mL
[1]; [3]
  Change from Baseline in PRO-C3, Mean: -7.20 ng/mL
  Change from Baseline in PRO-C3, Median: 0.40 ng/mL
[1]; [4]
  Change from Baseline in PRO-C3, Mean: -11.51 ng/mL
  Change from Baseline in PRO-C3, Median: -13.65 ng/mL
[1]; [5]
  Change from Baseline in PRO-C3, Mean: -15.79 ng/mL
  Change from Baseline in PRO-C3, Median: -10.10 ng/mL
[1]; [6]
  Change from Baseline in PRO-C3, Mean: -22.42 ng/mL
  Change from Baseline in PRO-C3, Median: -11.90 ng/mL
[1]; [7]
  Change from Baseline in PRO-C3, Mean: -27.42 ng/mL
  Change from Baseline in PRO-C3, Median: -18.30 ng/mL
[1]; F3 patients, 80 mg, Week 52
  PRO-C3 change from baseline: −22.42 (6.38)
[1]; F3 patients, 100 mg, Week 52
  PRO-C3 change from baseline: −27.42 (6.72)
[1]; [8]
  Change from Baseline in PRO-C3, Mean: -17.93 ng/mL
  Change from Baseline in PRO-C3, Median: -11.95 ng/mL
[1]; [9]
  Change from Baseline in PRO-C3, Mean: -23.05 ng/mL
  Change from Baseline in PRO-C3, Median: -13.40 ng/mL
